SMILES strings stand for the structures.

What all share (assay type): in vivo
In assay [1] the test system is Beet Armyworm (Spodoptera exigua, LAPHEG) (BAW). Put plainly: Bioassays on Beet Armyworm (BAW), 128-well diet tray assay. The following applies: Table ABC rating, Beet Armyworm. The method, boiled down:
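Beet armyworm (Spodoptera exigua) was tested with a 128-well diet tray format. Each 3 mL well held 1 mL of artificial diet treated with the test molecule in 50 μL of 90:10 acetone-water and allowed to dry, across eight wells. One to five second instar larvae were added per well. Trays were sealed with clear self-adhesive covers and kept at 25° C. under 14:10 light-dark for five to seven days. Percent mortality was scored per well and averaged across the eight wells.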

The test system of assay [2] is Cabbage Looper (Trichoplusia ni, TRIPNI) (CL). Put plainly: Bioassays on Cabbage Looper (CL), 128-well diet tray assay. The following applies: Table ABC rating, Cabbage Looper. The method, boiled down:
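Cabbage looper (Trichoplusia ni) larvae at the second instar stage were tested in a 128-well diet tray. Each 3 mL well held 1 mL of artificial diet treated with test molecule dissolved in 50 μL of 90:10 acetone-water and allowed to dry, eight wells per treatment. One to five larvae were added per well. Trays were sealed with clear self-adhesive covers and kept at 25° C., 14:10 light-dark for five to seven days. Percent mortality per well was averaged across the eight wells.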

Assay [3] concerns Green Peach Aphid (Myzus persicae, MYZUPE) (GPA). The assay can be described thus: Bioassays on Green Peach Aphid (GPA), cabbage seedling foliar spray. The following applies: Table ABC rating. Here is the method: Example B: Bioassays on Green Peach Aphid (Myzus persicae, MYZUPE) (“GPA”) Certain molecules disclosed in this document were tested against GPA using procedures described in the following example. In the reporting of the results, the “GPA & YFM Rating Table” was used (See Table Section). Cabbage seedlings grown in 3-inch pots, with 2-3 small (3-5 cm) true leaves, were used as test substrate. The seedlings were infested with 20-50 GPA (wingless adult and nymph stages) one day prior to chemical application. Four pots with individual seedlings were used for each treatment. Test molecules (2 mg) were dissolved in 2 mL of acetone/methanol (1:1) solvent, forming stock solutions of 1000 ppm test molecule. The stock solutions were diluted 5× with 0.025% Tween 20 in water to obtain the solution at 200 ppm test molecule. A hand-held aspirator-type sprayer was used for spraying a solution to both sides of […] leaves until runoff. Reference plants (solvent check) were sprayed with the diluent only containing 20% by volume of acetone/methanol (1:1) solvent. Treated plants were held in a holding room for three days at approximately 25° C. and ambient relative humidity (RH) prior to grading. Evaluation was conducted by counting the number of live aphids per plant under a microscope. Percent Control was measured by using Abbott's correction formula (W. S. Abbott, “A Method of Computing the Effectiveness of an Insecticide” J. Econ. Entomol. 18 (1925), pp. 265-267) as follows. Corrected % Control=100*(X−Y)/X • where • X=No. of live aphids on solvent check plants and • Y=No. of live aphids on treated plants The results are indicated in the table entitled “Table ABC: Biological Results” (See Table Section).

For assay [4], the system named is Yellow Fever Mosquito (Aedes aegypti, AEDSAE) (YFM). Put plainly: Bioassays on Yellow Fever Mosquito (YFM), 96-well plate larval assay. The following applies: Table ABC rating. How it is done:
Example C: Bioassays on Yellow Fever Mosquito (Aedes aegypti, AEDSAE) (“YFM”)
Certain molecules disclosed in this document were tested against YFM using procedures described in the following paragraph. In the reporting of the results, the “GPA & YFM Rating Table” was used (See Table Section).
Master plates containing 400 μg of a molecule dissolved in 100 μL of dimethyl sulfoxide (DMSO) (equivalent to a 4000 ppm solution) are used. A master plate of assembled molecules contains 15 μL per well. To this plate, 135 μL of a 90:10 water:acetone mixture is added to each well. A robot (Biomek® NXP Laboratory Automation Workstation) is programmed to dispense 15 μL aspirations from the master plate into an empty 96-well shallow plate (“daughter” plate). There are 6 reps (“daughter” plates) created per master. The created daughter plates are then immediately infested with YFM larvae.
The day before plates are to be treated, mosquito eggs are placed in Millipore water containing liver powder to begin hatching (4 g. into 400 mL). After the daughter plates are created using the robot, they are infested with 220 μL of the liver powder/larval mosquito mixture (about 1 day-old larvae). After plates are infested with mosquito larvae, a non-evaporative lid is used to cover the plate to reduce drying. Plates are held at room temperature for 3 days prior to grading. After 3 days, each well is observed and scored based on mortality. The results are indicated in the table entitled “Table ABC: Biological Results” (See Table Section).

Take `CO/N=C\NC(=O)c1ccc(/C(F)=C/C(c2cc(Cl)c(Cl)c(Cl)c2)C(F)(F)F)cc1C(F)(F)F` (mixture of isomers) [F19, N-((E/Z)-(methoxyimino)methyl)-4-((Z)-1,4,4,4-tetrafluoro-3-(3,4,5-trichlorophenyl)but-1-en-1-yl)-2-(trifluoromethyl)benzamide]: the pest or weed control at 50 µg/cm2 in assay [1] and in assay [2] was 50 to 100% in each case. Also, the GPA result in assay [3] is listed as “B (More than 0-Less than 80)”.

For the compound `O=C(NC1CC1)c1ccc(/C(F)=C/C(c2cc(Cl)c(Cl)c(Cl)c2)C(F)(F)F)cc1C(F)(F)F` (stereo not drawn) [F3, (Z)—N-Cyclopropyl-4-(1,4,4,4-tetrafluoro-3-(3,4,5-trichlorophenyl)but-1-en-1-yl)-2-(trifluoromethyl)benzamide], the pest or weed control at 50 µg/cm2 in assay [1] and in assay [2] was 50 to 100% each time. The GPA result in assay [3] is “B (More than 0-Less than 80)”.

Consider `O=C(NC1CC(F)(F)C1)c1ccc(/C(F)=C/C(c2cc(Cl)c(Cl)c(Cl)c2)C(F)(F)F)cc1C(F)(F)F` (stereo not drawn) [F7, (Z)—N-(3,3-difluorocyclobutyl)-4-(1,4,4,4-tetrafluoro-3-(3,4,5-trichlorophenyl)but-1-en-1-yl)-2-(trifluoromethyl)benzamide], for which the pest or weed control at 50 µg/cm2 in assay [1] and in assay [2] was 50 to 100% in each case. The GPA result in assay [3] is on record as “A (80-100)”.

As to `O=C(NCc1ccccn1)c1ccc(/C(F)=C/C(c2cc(Cl)c(Cl)c(Cl)c2)C(F)(F)F)cc1C(F)(F)F` (stereo not drawn) [F51, (Z)—N-(Pyridin-2-ylmethyl)-4-(1,4,4,4-tetrafluoro-3-(3,4,5-trichlorophenyl)but-1-en-1-yl)-2-(trifluoromethyl)benzamide], the pest or weed control at 50 µg/cm2 in assay [1] and in assay [2] was 50 to 100% in each case. Also, the YFM entry in assay [4] is on record as “A (80-100)”.

As to `CC(NC(=O)c1ccc(/C(F)=C/C(c2cc(Cl)c(Cl)c(Cl)c2)C(F)(F)F)cc1C(F)(F)F)c1ccccn1` (stereo not drawn) [F52, (Z)—N-(1-(Pyridin-2-yl)ethyl)-4-(1,4,4,4-tetrafluoro-3-(3,4,5-trichlorophenyl)but-1-en-1-yl)-2-(trifluoromethyl)benzamide], the pest or weed control at 50 µg/cm2 in assay [1] and in assay [2] was 50 to 100% in each case. Also, in assay [4], the YFM result was “A (80-100)”.

In the case of `O=C(NCC(F)(F)F)c1ccc(/C(F)=C/C(c2cc(Cl)c(Cl)c(Cl)c2)C(F)(F)F)c2ccccc12` (stereo not drawn) [PF1, (Z)-4-(1,4,4,4-Tetrafluoro-3-(3,4,5-trichlorophenyl)but-1-en-1-yl)-N-(2,2,2-trifluoroethyl)-1-naphthamide], the pest or weed control at 50 µg/cm2 in assay [1] and in assay [2] was 50 to 100% throughout. Further, in assay [4], the YFM entry is recorded as “A (80-100)”.

For orientation: pest or weed control means the degree to which the test organism was suppressed or injured, in per cent. A higher pest or weed control goes with a strong effect.

The record behind these values is US9924717B2, “Molecules having pesticidal utility, and intermediates, compositions, and processes, related thereto” (Dow AgroSciences LLC, priority 2016, dated 2018).
